Test results published in patent EP4671240A1, “SALT CONTAINING AROMATIC RING DERIVATIVE ANTAGONIST, PREPARATION METHOD THEREFOR, AND APPLICATION THEREOF” (Jiangsu Hansoh Pharmaceutical Group Co., Ltd., priority 2023, dated 2024).
Where a name gives a salt, the structure may show the parent alone.

Legend:
[1] = Solid stability experiment of crystal forms of salts; type: physicochemical; details: for XRPD: after treatment under light, high humidity, high temperature and 50°C/RH75%
Description: To investigate the physical and chemical stability of crystal forms of the compound under high temperature, high humidity, high temperature and high humidity, and light conditions, thereby providing a basis for crystal form screening and storage.
4.1.3.1 Appropriate amounts of crystal form B of the hydrochloride salt, crystal form A of the methanesulfonic acid salt, crystal form A of the sulphuric acid salt, and crystal form A of the hydrobromic acid salt of the compound 4'-((2-butyl-4-oxo-1,3-diazaspiro[4.4]non-1-en-3-yl)methyl-d2)-N-(4-chloro-5-methylisoxazol-3-yl)-2'-(ethoxymethyl)-[1,1'-biphenyl]-2-sulfonamide were weighed and treated under light (5000±500lux), high humidity (25°C, 92.5%), high temperature (60°C), and 50°C±2°C/RH75%±5% for a certain period of time, and then their XRPD, purity and impurity content data were measured.
The maximum individual impurity increase for crystal form B of hydrochloride salt, crystal form A of methanesulfonic acid salt and crystal form A of sulphuric acid salt was determined by comparing Day 20 with Day 0, whereas for crystal form A of hydrobromic acid salt, it was determined by comparing Day 10 with Day 0.

[2] = Hygroscopicity experiment (dynamic vapor sorption); type: physicochemical
Description: To investigate the hygroscopicity of crystal form B of the hydrochloride salt of the compound 4'-((2-butyl-4-oxo-1,3-diazaspiro[4.4]non-1-en-3-yl)methyl-d2)-N-(4-chloro-5-methylisoxazol-3-yl)-2'-(ethoxymethyl)-[1,1'-biphenyl]-2-sulfonamide under different relative humidity conditions, thereby providing a basis for compound crystal form screening and storage.
Crystal form B of the hydrochloride salt of the compound 4'-((2-butyl-4-oxo-1,3-diazaspiro[4.4]non-1-en-3-yl)methyl-d2)-N-(4-chloro-5-methylisoxazol-3-yl)-2'-(ethoxymethyl)-[1,1'-biphenyl]-2-sulfonamide was placed in saturated water vapor with different relative humidity to allow the compound and the water vapor to reach dynamic equilibrium, and the percentage of hygroscopic weight gain of the compound after equilibrium was calculated.

[3] = Liver microsomal metabolism stability assay (rat); type: in vitro ADME; details: rat liver microsomes, 60 min, compound 1 µM
Procedure: (§1) The objective of this experiment was to detect the stability of the example compounds in liver microsomes of rats, dogs and humans.
(§2) Formulation of compound working solution: compound stock solution was added to phosphate buffer to a final concentration of 20 µM.
(§3) Dilution was performed with 100 mM phosphate buffer to a final concentration of 0.625 mg/mL.
(§4) NADPH (reduced nicotinamide adenine dinucleotide phosphate) and UDPGA (uridine diphosphate glucuronic acid) were weighed, and 100 mM phosphate buffer was added to a final concentration of 20 mM.
(§5) 1 mg of Alamethicin was weighed, and 200 µL of DMSO was added to formulate a 5 mg/mL solution. Then dilution was performed with phosphate buffer to a final concentration of 50 µg/mL.
(§6) Stop solution: cold acetonitrile containing 100 ng/mL labetalol hydrochloride and 400 ng/mL tolbutamide as internal standards.
(§7) 400 µL of formulated liver microsomes, 25 µL of compound working solution and 25 µL of Alamethicin were added in sequence to a 96-well plate, and the mixture was pre-incubated at 37°C for 10 min. Then 50 µL of formulated NADPH/UDPGA was added to start the reaction and the mixture was incubated at 37°C. The total volume of the reaction system was 500 µL. The final contents of each component are as follows:
(§8) • Instrument: Shimadzu LC-30 AD; • Chromatographic column: XBridge® C18 (50*4.6 mm, 5 µm particle size); • Mobile phase: A: 0.1% formic acid solution, B: methanol • Elution gradient: 0.2-1.6 min 5% A to 95% A, 3.0-3.1 min 95% A to 5% A • Run time: 4.0 min.
(§9) • Instrument: API5500 liquid chromatography-mass spectrometer, AB Sciex; • Ion source: electrospray ionization source (ESI); • Drying gas: N2, temperature 500°C; • Electrospray voltage: 5000 V; • Detection mode: positive ion detection; • Scan mode: Multiple Reaction Monitoring (MRM) mode.

[4] = Liver microsomal metabolism stability assay (dog); type: in vitro ADME; details: dog liver microsomes, 60 min, compound 1 µM
Procedure: as §1, §2, §3, §4, §5, §6, §7, §8, §9

[5] = Liver microsomal metabolism stability assay (human); type: in vitro ADME; details: human liver microsomes, 60 min, compound 1 µM
Procedure: as §1, §2, §3, §4, §5, §6, §7, §8, §9

[6] = 50°C&75%RH, Day 20 compared with Day 0
[7] = high humidity 25°C, 92.5% RH, Day 20 compared with Day 0
[8] = high temperature 60°C, Day 20 compared with Day 0
[9] = light 5000±500lux, Day 20 compared with Day 0

## [2H]C([2H])(c1ccc(-c2ccccc2S(=O)(=O)Nc2noc(C)c2Cl)c(COCC)c1)N1C(=O)C2(CCCC2)N=C1CCCC [Crystal form A of hydrobromic acid salt, 4'-((2-butyl-4-oxo-1,3-diazaspiro[4.4]non-1-en-3-yl)methyl-d2)-N-(4-chloro-5-methylisoxazol-3-yl)-2'-(ethoxymethyl)-[1,1'-biphenyl]-2-sulfonamide]
[1]; 50°C&75%RH, Day 10 compared with Day 0
  Maximum individual impurity increase: 0.02%
[1]
  XRPD: Crystal form unchanged
[1]; high humidity 25°C, 92.5% RH, Day 10 compared with Day 0
  Maximum individual impurity increase: 0.02%
[1]; high temperature 60°C, Day 10 compared with Day 0
  Maximum individual impurity increase: 0.05%

## [2H]C([2H])(c1ccc(-c2ccccc2S(=O)(=O)Nc2noc(C)c2Cl)c(COCC)c1)N1C(=O)C2(CCCC2)N=C1CCCC [Crystal form A of methanesulfonic acid salt] [4'-((2-butyl-4-oxo-1,3-diazaspiro[4.4]non-1-en-3-yl)methyl-d2)-N-(4-chloro-5-methylisoxazol-3-yl)-2'-(ethoxymethyl)-[1,1'-biphenyl]-2-sulfonamide]
[1]; [6]
  Maximum individual impurity increase: 0.08%
[1]
  XRPD: Crystal form unchanged
[1]; [7]
  Maximum individual impurity increase: <0.01%
[1]; [8]
  Maximum individual impurity increase: 0.05%
[1]; [9]
  Maximum individual impurity increase: 0.09%

## [2H]C([2H])(c1ccc(-c2ccccc2S(=O)(=O)Nc2noc(C)c2Cl)c(COCC)c1)N1C(=O)C2(CCCC2)N=C1CCCC [Crystal form A of sulphuric acid salt, 4'-((2-butyl-4-oxo-1,3-diazaspiro[4.4]non-1-en-3-yl)methyl-d2)-N-(4-chloro-5-methylisoxazol-3-yl)-2'-(ethoxymethyl)-[1,1'-biphenyl]-2-sulfonamide]
[1]; [6]
  Maximum individual impurity increase: 0.14%
[1]
  XRPD: Crystal form unchanged
[1]; [7]
  Maximum individual impurity increase: 0.05%
[1]; [8]
  Maximum individual impurity increase: 0.11%
[1]; [9]
  Maximum individual impurity increase: 0.06%

## [2H]C([2H])(c1ccc(-c2ccccc2S(=O)(=O)Nc2noc(C)c2Cl)c(COCC)c1)N1C(=O)C2(CCCC2)N=C1CCCC [Crystal form B of hydrochloride salt, 4'-((2-butyl-4-oxo-1,3-diazaspiro[4.4]non-1-en-3-yl)methyl-d2)-N-(4-chloro-5-methylisoxazol-3-yl)-2'-(ethoxymethyl)-[1,1'-biphenyl]-2-sulfonamide]
[1]; [6]
  Maximum individual impurity increase: <0.01%
[1]
  XRPD: Crystal form unchanged
[1]; [7]
  Maximum individual impurity increase: <0.01%
[1]; [8]
  Maximum individual impurity increase: 0.02%
[1]; [9]
  Maximum individual impurity increase: 0.04%
[2]; RH80%, 25°C, DVS
  hygroscopic weight gain: 0.378%
[2]; after 2 cycles under 0-95% relative humidity
  XRPD pattern after moisture absorption and desorption: no change

## [2H]C([2H])(OCC)c1cc(CN2C(=O)C3(CCCC3)N=C2CCCC)ccc1-c1ccccc1S(=O)(=O)Nc1noc(C)c1Cl [Example 4, 4'-((2-Butyl-4-oxo-1,3-diazospiro[4.4]non-1-en-3-yl)methyl)-N-(4-chloro-5-methylisoxazol-3-yl)-2'-(ethoxydeuteromethyl)-[1,1'-biphenyl]-2-sulfonamide]
[3]
  Rat Remaining rate: 17.1%
[4]
  Dog Remaining rate: 23.9%
[5]
  Human Remaining rate: 30.7%
